pIC50: −log10 of the molar value. Like-named read-outs stand apart in the source and are kept apart here. Where no end group is shown, it is not given here.
What was measured:
[1] = system: PC3 cells; experiment: cells; conditions: Homo sapiens, PC-3, 2 h, read-out: PC3 2 hr IC50 (±SD)
Protocol: (§1) The cytotoxicity of the peptides on the prostate cancer derived cell lines DU145 and PC3 was tested as previously described (Morgan et al. 2014, ibid), using the MTT assay for metabolic activity. The cytotoxic drug Docetaxel (a standard chemotherapeutic drug) was included as a positive control.
(§2) Doses are in μM (micromoles), and the mean value from 3 experiments is given along with the standard deviation.

[2] = biological target: T1, HOXB4/PBX2 dimers (Homo sapiens, UniProt P40425); experiment: Cell based ELISA assay for HOX/PBX binding; conditions: MDA-MB-231 cells, 4 hours, compared to DMSO, SEM, read-out: % inhibition of HOXB4/PBX2 dimer formation
T1 construct: endogenous in cells; host or cells: MDA-MB-231
T1 sequence (P40425 1-430): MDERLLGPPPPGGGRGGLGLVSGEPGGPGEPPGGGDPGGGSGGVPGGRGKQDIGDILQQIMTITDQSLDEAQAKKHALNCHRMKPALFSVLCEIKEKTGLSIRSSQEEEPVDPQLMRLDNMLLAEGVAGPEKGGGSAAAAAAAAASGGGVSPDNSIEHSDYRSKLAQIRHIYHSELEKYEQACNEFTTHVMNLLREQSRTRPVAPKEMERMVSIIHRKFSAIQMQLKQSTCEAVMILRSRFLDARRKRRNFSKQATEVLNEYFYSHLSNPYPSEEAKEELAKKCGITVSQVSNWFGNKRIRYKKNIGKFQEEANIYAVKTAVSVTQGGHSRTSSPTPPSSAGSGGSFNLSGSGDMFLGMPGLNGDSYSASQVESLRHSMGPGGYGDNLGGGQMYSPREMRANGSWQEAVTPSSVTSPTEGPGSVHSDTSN
Protocol: In order to directly assess the ability of each peptide to disrupt HOX/PBX binding a cell-based assay system was developed that could allow the formation of HOX/PBX/DNA dimers. Cultured MDA-MB-231 cells were treated with 10 μM of each peptide for 4 hours and then used to generate a cell lysate using a standard preparation method as described below. HOXB4/PBX2 dimers were then measured using an ELISA-based system as detailed in the table below. The values from this assay are expressed as % inhibition of dimer formation compared to a negative control (DMSO).
1. Collect approximately 5.0×10^7 cells by low-speed centrifugation at RT for 5 min. Carefully remove culture medium.
2. Wash the cellular debris (pellet) with PBS at RT, and collect by low-speed centrifugation. Carefully remove supernatant (total protein).
3. Add 1.0 ml of pre-cold RIPA buffer (or other appropriate buffer) with freshly added (Protease Inhibitors) and/or (Phosphatase Inhibitors). Gently resuspend cells in RIPA buffer with a pipet and incubate on ice for 30 min.
4. Further disrupt and homogenize cells by passing through a 21-gauge needle, dounce homogenization or sonication, taking care not to raise the temperature of the lysate. (Optional: Add 10 μl of 10 mg/ml PMSF stock) Incubate 30 min on ice.
5. Transfer to microcentrifuge tube(s) and centrifuge at 10,000×g for 10 min at 4° C. […]

[3] = Body weight of PC3 tumour bearing mice; format: in vivo; conditions: intratumoural
Protocol: PC3 cells were injected subcutaneously into female or male Balb-c nude mice aged 6 to 12 weeks (Harlan, UK). When the tumour size reached 100 mm^3 mice were injected intratumouraly with PBS, HXR9 or HTL001 at the intervals shown in FIG. 3. Mice were sacrificed when the tumour size reached 1000 mm^3 or at the end of the experiment (36 days). Tumours were then excised and immersed in 10% formalin for 24 h and processed for paraffin embedding. 5 μm slices of xenografts in paraffin blocks were made using microtome and different proteins detected by immunohistochemistry.

[4] = system: PC3 cells; conditions: for PC3 2 hr IC50 change relative to HXR9: fold difference in IC50 relative to HXR9, 2 hr; for PC3 96 hr IC50 change relative to HXR9: fold difference in IC50 relative to HXR9, 96 hr
Protocol: as §1, §2

[5] = read-out: PC3 2 hr IC50 (±SD), PC3 cells, 2 hr, MTT, mean of 3 experiments ± SD
[6] = read-out: PC3 96 hr IC50 (±SD), PC3 cells, 96 hr, MTT, mean of 3 experiments ± SD

PC3 2 hr IC50 change relative to HXR9 [4] | PC3 96 hr IC50 change relative to HXR9 [4] | pIC50 [4, 5] | pIC50 [4, 6] | Compound | also measured
– | – | – | – | CC(=O)O[C@@]12CO[C@@H]1C[C@H](O)[C@@]1(C)C(=O)[C@H](O)C3=C(C)[C@@H](OC(=O)[C@H](O)[C@@H](NC(=O)OC(C)(C)C)c4ccccc4)C[C@@](O)([C@@H](OC(=O)c4ccccc4)[C@H]21)C3(C)C [Docetaxel] | pIC50 [1]: 5.40
– | – | – | – | WYKWMKKAARRRRRRRRR [HTL001, WYKWMKKAARRRRRRRRR] | inhibition at 10 µM [2]: 28.2%; Maximum % weight loss [3]: 0%
1.53 fold | 2.53 fold | 4.72 | 4.77 | WYKWMKKHHRRRRRRRRR [HXR9KS3] | –
1.32 fold | 2.05 fold | 4.66 | 4.68 | WYKWMKKRRRRRRRRR [HXR9KS3noH] | –
– | – | – | – | WYPAMKKHHRRRRRRRRR [CXR9, WYPAMKKHHRRRRRRRRR] | pIC50 ([4]; 2 h): < 4.10; pIC50 ([4]; 96 h): < 4.10
0.64 fold | 1.08 fold | 4.35 | 4.40 | WYPWMKKAARRRRRRRRR [HXR9AS7] | –
– | – | – | – | WYPWMKKHHRRRRRRRRR [HXR9, WYPWMKKHHRRRRRRRRR] | Maximum % weight loss [3]: 0%
0.48 fold | 0.80 fold | 4.22 | 4.27 | WYPWMKKRRRRRRRRR [HXR9noH] | –

Reference: patent US10494412B2, “Peptides” (HOX THERAPEUTICS LIMITED, priority 2015, dated 2019)
